Assay results published in a melting point compilation (Tetko et al.; mined from patent text by program, amines drawn as free bases though some values may be those of a salt).
Residues, ends and D or L forms follow the SMILES beside them. *: point of attachment. Bz = O=C(c1ccccc1)*

SMILES | melting point [°C]
CC(=O)O[C@@H]1[C@H](OC(C)=O)[C@@H](C)O[C@H]1n1c(Br)nc2c(Cl)c(Cl)c(Cl)cc21 | 160 to 162
CCCCCCCc1ccc(C(=O)c2ccc(C(=O)O)cc2)cc1 | 181
CCC(=O)c1ccc2c(Cc3ccccc3)c(CC)oc2c1 | 86 to 87
O=S(=O)(Nc1ccc2c(OCc3ccc(-c4ccc(F)cc4)cc3F)cccc2c1)C(F)(F)F | 134 to 136
OCC1CCn2c(cc3ccccc32)C1 (stereo not given) | 110 to 111
COC(=O)CCn1c(=O)n2n(c1=O)C(C(=O)OC(C)(C)C)C=CC2 (stereo not given) | 77 to 78
CC1(C)C=C(N2CCCC2=O)c2cc([N+](=O)[O-])ccc2O1 | 135 to 137
CC(=O)OC1CSC(Oc2cccnc2-c2cccs2)C(OC(C)=O)C1OC(C)=O (stereo not given) | 166
Cc1[nH]c(=O)[nH]c(=O)c1N1CCN(Cc2ccccc2)CC1 | 263
CCCCCCCCCCCCCCCCCC(=O)NCC(COCCCCCCCCCCCCCCCC)COCc1ccccc1 (stereo not given) | 56 to 57
CCNC(=O)C1OC(n2cnc3c(NCC(c4ccccc4)c4ccccc4)nc(NC4CCCC4)nc32)C(O)C1O (stereo not given) | 122 to 128
CCCCc1nc2ccnc(Cl)c2n1Cc1ccc(-c2ccccc2C#N)cc1 | 134
COc1ccc(Cc2cc3cc(C#N)ccc3o2)cc1 | 78 to 80
O=C(O)C12C3C4C5C3C1C5C42 (stereo not given) | 154 to 155
O=C1NC(=O)C(Cc2ccc(OCCON3C(=O)c4ccccc4C3=O)cc2)S1 (stereo not given) | 146 to 147
CC(C)(C)OC(=O)Cn1c(C(=O)OCc2ccccc2)cc2ccccc21 | 95 to 96
CC(C)c1n[nH]c2c(NCc3ccccc3)nc(NCCN)nc12 | 145 to 147
CCOC(=O)c1c(C)[nH]c2ccc(OC[C@@H](O)CN=[N+]=[N-])cc12 | 75 to 77
CCNC(=O)[C@@H]1CCCN1C(=O)[C@H](C)NC(=O)c1ccccc1 (Bz-Ala-Pro-NHEt) | 200 to 202
CCCc1c(OCCCOc2ccc([C@H]3OC(=O)C[C@H]3C)cc2)ccc(C(C)=O)c1O | 88.5 to 89.5
O=S1(=O)c2ccccc2-c2nc3ccccc3c(Cl)c21 | 266 to 269
COC(=O)C1=C(C)NC(=S)N(C(=O)OC(C)C)C1c1cccc([N+](=O)[O-])c1 (stereo not given) | 157 to 158
Cc1cc(-c2cccc(NC(=O)C3CC3)c2)n2ncc(C(=O)c3cccs3)c2n1 | 184 to 186
COc1cc(-c2nc(NNC(=O)c3cc4c(C)c(C)ccc4n3CCCC#N)nn2CCC2CCCCC2)c(OC)cc1Cl | 178
CCSc1nc(N)ccc1[N+](=O)[O-] | 132

SMILES | melting point [°C]
CC(=O)c1c(C)[nH]c(-c2ccncc2)c1-c1ccncc1 | 236 to 239
COc1cc(Br)c(OC)c(CC(=O)O)c1 | 62 to 65
CSc1cccc2c1CC(=O)N2 | 198
O=C(N1CCN(c2ccncc2Cl)CC1)N1CCN(S(=O)(=O)c2ccc(F)cc2)CC1 | 143 to 144
CCCCC#CC#CCOc1ccc(C(=O)O)cc1 | 165 to 166
COC(=O)C1(C)CCN(c2cccc(-c3cnc4[nH]cc(C(=O)C(C)(C)C)c4n3)c2)C1 (stereo not given) | 198 to 200
CS(=O)(=O)c1ccc(-n2nc(C(F)(F)F)cc2-c2ccc(C#CCCCO)cc2)cc1 | 87 to 90
COc1ccc(C(=O)c2c(N)sc3c2CCSC3)cc1 | 178 to 179
O=CNNC(=O)N1Cc2ccccc2Oc2ccc(Cl)cc21 | 177 to 181
CC1(C)Oc2ccc(C#N)cc2[C@@H](NC(=O)Nc2ccc3c(c2)CNC3)[C@@H]1O | 215 to 217
CCN(CC)C(=O)n1cc(F)c(S(=O)(=O)c2c(Cl)cc(Cl)cc2Cl)n1 | 89 to 90
N#Cc1ccc(-c2ccc(C=Cc3ccccc3)o2)nc1 | 154 to 155
Cc1ccc(S(=O)(=O)N(CCN(CC(=O)O)S(=O)(=O)c2ccc(C)cc2)CCN(CC(=O)O)S(=O)(=O)c2ccc(C)cc2)cc1 | 177 to 180
CC(C)Cc1cc(OCc2ccccc2)c2c(c1)OC(C)(C)CC2=O | 77.5 to 78
CCc1cnc2c(c1)C(=O)N(C(C)(C(N)=O)C(C)C)C2=O (stereo not given) | 115 to 117
O=C1Nc2cccc(-c3cccc(NC(=O)c4ccc([N+](=O)[O-])cc4)c3)c2/C1=C/c1ccc[nH]1 | 157 to 159
CC(=O)OC1CSC(Oc2cccc(-c3ccncc3)n2)C(OC(C)=O)C1OC(C)=O (stereo not given) | 137
O=C(O)c1cccc(-c2cccc3c2CCN(Cc2cccc(C(F)(F)F)c2)C3)c1 | 230 to 231
COc1ccc(C2CCc3cc(OC)ccc3C2CO)cc1 (stereo not given) | 84
O=C(c1ccccc1)c1cccnc1-c1nc(NCc2ccc(Cl)cc2)c2ccccc2n1 | 147 to 149
CCCSc1ncc(CC(NC(=O)CCC)C(=O)O)n1Cc1ccccc1Cl (stereo not given) | 178 to 181
Clc1ccc(-c2nc(-n3cccn3)oc2CCC2=NCCO2)cc1 | 79 to 80
COC(=O)c1cc(O)cc(C(=O)CS(C)=O)c1 (stereo not given) | 144 to 150
Cn1nc(O)c2ccccc2c1=O | 243 to 244
c1nc(-c2ccc3c(c2)OCO3)c2cc3c(cc2n1)OCO3 | 180 to 185
